Reference: patent US12077503B2, “Substituted cyclic amides and their use as herbicides” (FMC CORPORATION, priority 2015, dated 2024)

How the values were obtained:
Format in all cases: in vivo
[1] = test system: Kochia (Kochia scoparia); assay: Test A preemergence; details: Bassia scoparia, pre-emergence, 240 h, 500 g ai/ha, preemergence; 0 to 100 scale (0 no effect, 100 complete control); read-out: Plant response rating, Kochia
Procedure, shortened: (§1)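 Greenhouse, ~10 d after spray; visual injury vs untreated controls, 0 = no effect, 100 = complete control. Preemergence: directed soil spray over planted seeds. Postemergence: plants 2–10 cm, 1–2 leaf stage. Loam/sand blend. Compound in non-phytotoxic solvent with surfactant.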

[2] = test system: barnyardgrass (Echinochloa crus-galli); assay: Test A preemergence; details: Echinochloa crus-galli, pre-emergence, 240 h, 0 to 100 scale (0 no effect, 100 complete control), read-out: Plant response rating, Barnyardgrass
Procedure, shortened: as §1

[3] = test system: giant foxtail (Setaria faberii); assay: Test A preemergence; details: Setaria faberi, pre-emergence, 240 h, 0 to 100 scale (0 no effect, 100 complete control), read-out: Plant response rating, Foxtail, Giant
Procedure, shortened: as §1

[4] = test system: pigweed (Amaranthus retroflexus); assay: Test A preemergence; details: Amaranthus retroflexus, pre-emergence, 240 h, 0 to 100 scale (0 no effect, 100 complete control), read-out: Plant response rating, Pigweed
[5] = test system: ragweed (common ragweed, Ambrosia elatior); assay: Test A preemergence; details: Ambrosia artemisiifolia, pre-emergence, 240 h, 0 to 100 scale (0 no effect, 100 complete control), read-out: Plant response rating, Ragweed
Procedure, shortened: as §1

[6] = test system: ryegrass, Italian (Italian ryegrass, Lolium multiflorum); assay: Test A preemergence; details: Lolium multiflorum, pre-emergence, 240 h, 0 to 100 scale (0 no effect, 100 complete control), read-out: Plant response rating, Ryegrass, Italian
Procedure, shortened: as §1

[7] = test system: Galium (catchweed bedstraw, Galium aparine); assay: Test A postemergence; details: Galium, post-emergence, 240 h, Postemergence
Procedure, shortened: as §1

[8] = test system: Kochia (Kochia scoparia); assay: Test A postemergence; details: Bassia scoparia, post-emergence, 240 h, Postemergence
Procedure, shortened: as §1

[9] = test system: corn (Zea mays); assay: Test A postemergence; details: Zea mays, post-emergence, 240 h, Postemergence
Procedure, shortened: as §1

[10] = test system: giant foxtail (Setaria faberii); assay: Test A postemergence; details: Setaria faberi, post-emergence, 240 h, Postemergence
Procedure, shortened: as §1

[11] = test system: pigweed (Amaranthus retroflexus); assay: Test A postemergence; details: Amaranthus retroflexus, post-emergence, 240 h, Postemergence
Procedure, shortened: as §1

[12] = test system: ragweed (common ragweed, Ambrosia elatior); assay: Test A postemergence; details: Ambrosia artemisiifolia, post-emergence, 240 h, Postemergence
Procedure, shortened: as §1

[13] = test system: ryegrass, Italian (Italian ryegrass, Lolium multiflorum); assay: Test A postemergence; details: Lolium multiflorum, post-emergence, 240 h, Postemergence
Procedure, shortened: as §1

[14] = test system: wheat (Triticum aestivum); assay: Test A postemergence; details: Triticum aestivum, post-emergence, 240 h, Postemergence
Procedure, shortened: as §1

Compound: COc1cc(OC)cc([C@H]2CN(C)C(=O)[C@@H]2C(=O)Nc2cccc(F)c2F)c1 [Compound 1370]
- pest or weed control at 500 g/ha [1]: 80%
- pest or weed control at 500 g/ha ([2]; 500 g ai/ha, preemergence): 90%
- pest or weed control at 125 g/ha ([2]; Preemergence, 125 g ai/ha): 90%
- pest or weed control at 500 g/ha ([3]; 500 g ai/ha, preemergence): 90%
- pest or weed control at 125 g/ha ([3]; Preemergence, 125 g ai/ha): 90%
- pest or weed control at 500 g/ha ([4]; 500 g ai/ha, preemergence): 20%
- pest or weed control at 125 g/ha ([4]; Preemergence, 125 g ai/ha): 0%
- pest or weed control at 500 g/ha ([5]; 500 g ai/ha, preemergence): 80%
- pest or weed control at 125 g/ha ([5]; Preemergence, 125 g ai/ha): 40%
- pest or weed control at 500 g/ha ([6]; 500 g ai/ha, preemergence): 90%
- pest or weed control at 125 g/ha ([6]; Preemergence, 125 g ai/ha): 80%
- pest or weed control at 125 g/ha ([7]; 125 g ai/ha, visual rating about 10 d after treatment, read-out: Galium plant response rating (0 to 100 scale)): 40%
- pest or weed control at 500 g/ha ([7]; 500 g ai/ha, visual injury, 0 to 100 scale (0 no effect, 100 complete control), approx. 10 d, read-out: Plant response rating, Galium): 50%
- pest or weed control at 125 g/ha ([8]; 125 g ai/ha, visual rating about 10 d after treatment, read-out: Kochia plant response rating (0 to 100 scale)): 50%
- pest or weed control at 500 g/ha ([8]; 500 g ai/ha, visual injury, 0 to 100 scale (0 no effect, 100 complete control), approx. 10 d, read-out: Plant response rating, Kochia): 50%
- plant injury at 125 g/ha ([9]; 125 g ai/ha, visual rating about 10 d after treatment, read-out: Corn plant response rating (0 to 100 scale)): 30%
- Corn plant response rating (crop injury, 0 = no effect, 100 = complete kill) at 500 g/ha ([9]; 500 g ai/ha, visual injury, 0 to 100 scale (0 no effect, 100 complete control), approx. 10 d): 80%
- pest or weed control at 125 g/ha ([10]; 125 g ai/ha, visual rating about 10 d after treatment, read-out: Foxtail, Giant plant response rating (0 to 100 scale)): 90%
- pest or weed control at 500 g/ha ([10]; 500 g ai/ha, visual injury, 0 to 100 scale (0 no effect, 100 complete control), approx. 10 d, read-out: Plant response rating, Foxtail, Giant): 90%
- pest or weed control at 125 g/ha ([11]; 125 g ai/ha, visual rating about 10 d after treatment, read-out: Pigweed plant response rating (0 to 100 scale)): 0%
- pest or weed control at 500 g/ha ([11]; 500 g ai/ha, visual injury, 0 to 100 scale (0 no effect, 100 complete control), approx. 10 d, read-out: Plant response rating, Pigweed): 30%
- pest or weed control at 125 g/ha ([12]; 125 g ai/ha, visual rating about 10 d after treatment, read-out: Ragweed plant response rating (0 to 100 scale)): 0%
- pest or weed control at 500 g/ha ([12]; 500 g ai/ha, visual injury, 0 to 100 scale (0 no effect, 100 complete control), approx. 10 d, read-out: Plant response rating, Ragweed): 30%
- pest or weed control at 125 g/ha ([13]; 125 g ai/ha, visual rating about 10 d after treatment, read-out: Ryegrass, Italian plant response rating (0 to 100 scale)): 40%
- pest or weed control at 500 g/ha ([13]; 500 g ai/ha, visual injury, 0 to 100 scale (0 no effect, 100 complete control), approx. 10 d, read-out: Plant response rating, Ryegrass, Italian): 70%
- plant injury at 125 g/ha ([14]; 125 g ai/ha, visual rating about 10 d after treatment, read-out: Wheat plant response rating (0 to 100 scale)): 40%
- plant injury at 500 g/ha ([14]; 500 g ai/ha, visual injury, 0 to 100 scale (0 no effect, 100 complete control), approx. 10 d, read-out: Plant response rating, Wheat): 70%
